{"source": "patent US20190038209A1", "about": "“Using Spectral CT to Diagnose Thyroid Nodules” (BOARD OF REGENTS, THE UNIVERSITY OF TEXAS SYSTEM, priority 2016, published 2019)", "assay": "Spectral CT iodine-no-water map of rat thyroid before and after oral potassium iodide", "format": "in vivo", "conditions": "Fischer rats, 654 mg potassium iodide (500 mg iodine) oral gavage, 10 hours of uptake; baseline 1.5 mg I/mL", "experimental": "Next, a Philips IQon Spectral CT scanner was used to obtain in vivo animal data. Three healthy female Fischer rats ranging from 150 g to 250 g mass were each anesthetized using 2.5% isoflurane and scanned in a supine position using the highest resolution settings for the IQon Spectral CT clinical scanner (0.625 mm slice thickness with 0.20 mm in-plane pixel resolution). The baseline endogenous iodine levels within the rat thyroid were measured using the iodine-no-water map and averaged 1.5 mg I/mL. These levels are similar to the baseline endogenous iodine levels found within healthy human thyroid tissue. The rats were then each given a bolus dose of 654 mg of potassium iodide (equivalent to 500 mg of iodine) that was dissolved in 1 mL of water and administered orally using a gavage. After 10 hours of uptake the rats were again anesthetized with 2.5% isoflurane and scanned a second time on the IQon Spectral CT using the same settings as before. The iodine levels within the rat thyroid now averaged 3.0 mg I/mL, or a 100% increase in iodine. […] Generally, a 500 mg dose of oral iodine given to humans can increase the level of organified iodine in the thyroid tissue (after a full 24 hours of uptake) from 1.5 mg I/mL to 5-10 mg I/ml depending on total thyroid volume. […]"}
{"smiles": "[I-].[K+]", "note": "[potassium iodide]", "values": [{"measurement": "iodine levels within the rat thyroid (average)", "value": 3.0, "unit": "mg I/mL"}]}
